Consider one substance from patent publication US20110251143A1, “STABLE ELSAMITRUCIN SALT FORMULATIONS” (Spectrum Pharmaceuticals, Inc., priority 2007, published 2011).

Series [1] deals with B16F10 murine melanoma cells. Description: MTT cell growth inhibition, B16F10. The series is classed as cell-based. To be noted: 5-10 days. The protocol: (§1) The following experiment confirms that the elsamitrucin salts made in accordance with the teachings of the present disclosure retain their in vitro anti-neoplastic activity when compared to elsamitrucin base. Elsamitrucin and elsamitrucin tosylate were tested in vitro using: B16F10 (murine […]), HCT 116 (human colon), HT29 (human colon) and SK-MES-1 (human non-small cell lung carcinoma). Cell growth inhibition was evaluated in 96-well micro-culture plates with a semi-automated MTT (3-(4,5-dimethylthiazol-2-yl)-2,5-diphenyltetrazolium bromide) assay. […]
(§2) Cell culture plates seeded with test cells and various concentrations of elsamitrucin solutions were placed in a humidified incubator at 37° C., with CO2 and 95% air for 5-10 days. […] Absorbance was monitored at a wavelength of 595 nm, and at a reference wavelength of 650 nm, using a TECAN® GENios mocroplate reader. In all experiments, absorbance data was acquired for each agent at two overlapping concentration ranges. […]
(§3) The results of each test were stored and imported into PRISM® 3.03 for graphical analysis and determination of IC50 values. All results were graphed as a percentage of controlled absorbance versus the drug concentration. […]

Series [2] in a line: solution stability in benzoate buffer (HPLC, MS). The series is classed as physicochemical. To be noted: benzoate buffer (pH 4), 50° C., ten days, samples at 3, 5, 10 days. As for the experimental part:
(§4) Elsamitrucin salts made in accordance with the teachings of the present disclosure were tested for stability. Two samples of the isolated p-TSA salt (40 mg each) were placed in a vacuum oven at 75° C. for nine hours. After this exposure, sample #1 was taken out, the temperature was increased to 98° C. and the second sample was dried overnight. […] The weight loss by TGA was approximately 2.5% for both samples. Karl Fischer analysis indicated the two lots still had water present: sample #1 had 4.0% water content and #2 had 4.6%. The p-TSA salt (16 mg) of elsamitrucin was dissolved in 1.6 mL of benzoate buffer (pH 4) and stirred at 50° C. for ten days. Samples for HPLC and MS were taken in 3, 5, and 10 days.

In series [3] the test system is HCT 116 human colon carcinoma. Description: MTT cell growth inhibition, HCT 116. The series is classed as cell-based. To be noted: HCT 116, MTT, 5-10 days. The protocol:
as §1, §2, §3

Series [4] deals with SK-MES-1 human non-small cell lung carcinoma. Description: MTT cell growth inhibition, SK-MES-1. The series is classed as cell-based. To be noted: SK-MES-1, MTT, 5-10 days. As for the experimental part:
as §1, §2, §3

In series [5] the test system is HT29 human colon carcinoma. Description: MTT cell growth inhibition, HT29. The series is classed as cell-based. To be noted: 5-10 days. As for the experimental part: as §1, §2, §3
Series [6] in a line: solubility of the p-TSA salt checked by HPLC. To be noted: for solubility at pH 4 / Concentration (mg/mL) / solubility in water / Concentration: HPLC; for solubility in water / Concentration: slurry stirred at room temperature for six hours. The series is classed as physicochemical. The text has this:
The solubility of the p-TSA salt in water was checked by HPLC after stirring the slurry at room temperature for six hours.

The nature of series [7]: solid state stability, drying at elevated temperatures (NMR). To be noted: vacuum oven 75° C. nine hours; 98° C. overnight; NMR 1:1 salt ratio. The series is classed as physicochemical. As for the experimental part:
as §4

For orientation: IC50 means the concentration at which inhibition is half-maximal. Low readings indicate greater potency, high ones weaker potency. In general, solubility refers to how much of the substance goes into solution per volume. Take “elsamitrucin tosylate [Elsamitrucin p-TSA Salt]”: the concentration for half-maximal inhibition (IC50) in series [1] was 28 nM; in series [3], 79 nM; in series [4], 45 nM; in series [5] it was 105 nM. In series [2], the decomposition in solution result was “No evidence of the decomposition product”. Also, the results for the “Vial Concentration” value in series [6] (pH 4 (benzoate buffer)) and in series [6] (water) were 0.01789 M and 0.01891 M, respectively. Moreover, the “solubility at pH 4 / Concentration (mg/mL)” value in series [6] (pH 4 (benzoate buffer)) was determined as 14.7 mg/mL; in series [6] (pH 4 (benzoate buffer), listed as OVL-A-143) it was 14.78 mg/mL. Also, the “solubility in water / Concentration” value is 15.6 mg/mL in series [6] (water) and 15.61 mg/mL in series [6] (water, listed as OVL-A-137). Moreover, the “decomposition in the solid state during drying” value in series [7] is listed as “no decomposition”.
